Experimental data taken from paper PMC5415599, “New Potent Membrane-Targeting Antibacterial Peptides from Viral Capsid Proteins” (Frontiers in Microbiology, 2017).
Like-named read-outs stand apart in the source and are kept apart here. Where no end group is shown, it is not given here.

How the values were obtained:
[1] = system: Escherichia coli (E. coli) ATCC 25922; format: cell-based; details: MHB, 5 × 10^5 CFU/mL, 37°C, 18 h, triplicate
Description: (§1) The antibacterial activity of the vCPPs was tested using a standard broth microdilution procedure ([Wikler et al., 2006]; [Wiegand et al., 2008]) to evaluate the bacterial growth inhibition and determine the minimal inhibitory concentration (MIC). The assay was performed using the following strains: Gram-positive Staphylococcus aureus (S. aureus) ATCC 25923 and methicillin-resistant Staphylococcus aureus (MRSA) ATCC 33591, and Gram-negative Escherichia coli (E. coli) ATCC 25922 and Pseudomonas aeruginosa (P. aeruginosa) ATCC 27853, obtained from American Type Culture Collection (ATCC) (Manassas, VA, USA). Bacterial suspensions were prepared by direct suspension of morphologically similar colonies on Mueller Hinton Broth (MHB) from BD (Franklin Lakes, NJ, USA) to a final concentration of 1 × 10^6 CFU/mL, and added to a sterile 96-well microtiter polypropylene plate from Corning (Corning, NY, USA) containing two-fold dilutions of each peptide. Final bacterial concentration was 5 × 10^5 CFU/mL whereas peptide concentrations ranged between 100 and 0.78 μM. The 96-well plate was incubated at 37°C for 18 h. The MIC was defined as the lowest peptide concentration required to inhibited visible bacterial growth. The assay was performed in triplicate.

[2] = system: Pseudomonas aeruginosa (P. aeruginosa) ATCC 27853; format: cell-based; details: MHB, 5 × 10^5 CFU/mL, 37°C, 18 h, triplicate
Description: as §1

[3] = system: Staphylococcus aureus (S. aureus) ATCC 25923; format: cell-based; details: MHB, 5 × 10^5 CFU/mL, 37°C, 18 h, triplicate
Description: as §1

[4] = system: methicillin-resistant Staphylococcus aureus (MRSA) ATCC 33591; format: cell-based; details: MHB, 5 × 10^5 CFU/mL, 37°C, 18 h, triplicate
Description: as §1

MRSA = format: cell-based, Staphylococcus aureus; details: for bactericidal or bacteriostatic: bactericidal when MBC is equal or lower than four-fold MIC; for MBC: lowest concentration causing ≥99.9% cell death of the inoculum, TSA plates, 37°C, 24 h, triplicate
Description: (§2) After the MIC assay, aliquots were removed from the wells with no visible bacterial growth, serially diluted in MHB, plated on nutrient-rich trypcase soy agar (TSA) plates from bioMérieux (Marcy l’Etoile, France), and incubated at 37°C for 24 h. […] The assay was performed in triplicate.

S. aureus [5] = format: cell-based, Staphylococcus aureus; details: for bactericidal or bacteriostatic: bactericidal when MBC is equal or lower than four-fold MIC; for MBC: lowest concentration causing ≥99.9% cell death of the inoculum, TSA plates, 37°C, 24 h, triplicate
Description: as §2

E. coli = format: cell-based, Escherichia coli; details: for bactericidal or bacteriostatic: bactericidal when MBC is equal or lower than four-fold MIC; for MBC: lowest concentration causing ≥99.9% cell death of the inoculum, TSA plates, 37°C, 24 h, triplicate
Description: as §2

P. aeruginosa [6] = format: cell-based; details: for bactericidal or bacteriostatic: bactericidal when MBC is equal or lower than four-fold MIC; for MBC: lowest concentration causing ≥99.9% cell death of the inoculum, TSA plates, 37°C, 24 h, triplicate
Description: as §2

S. aureus [7] = test: Time-kill assay; format: cell-based, Staphylococcus aureus; details: peptide at its MBC, after 30 min, MHB, 37°C, relative to control without peptide, three independent experiments
Description: (§3) For viral protein-derived peptides displaying bactericidal activity, bacterial killing kinetics was determined by a conventional method based on colony counts obtained after different times of exposure of the bacterial cells to the peptides ([Barry et al., 1999]). The assay was performed using S. aureus and P. aeruginosa as representative strains of Gram-positive and Gram-negative bacteria, respectively. Bacterial suspensions prepared in MHB at 5 × 10^5 CFU/mL were treated with each peptide at final concentrations corresponding to their MBC, and incubated at 37°C and 200 rpm. A control of bacterial suspensions without peptide was performed under the same conditions. Aliquots of untreated and peptide-treated bacterial suspensions were withdrawn at 0, 15, 30, 60, 120, and 180 min, serially diluted in MHB, and plated on TSA plates. Bacterial colonies were counted after 24 h of incubation at 37°C. Viable bacteria (in CFU/mL) are reported as percentage of the control. The assay was performed in triplicate.

P. aeruginosa [8] = test: Time-kill assay; format: cell-based, Pseudomonas aeruginosa; details: peptide at its MBC, after 180 min, MHB, 37°C, relative to control without peptide, three independent experiments
Description: as §3

P. aeruginosa [9] = test: SYTOX Green uptake assay (membrane permeabilization, flow cytometry); format: cell-based, Pseudomonas aeruginosa; details: P. aeruginosa 5 × 10^5 CFU/mL in 10 mM HEPES pH 7.4, 150 mM NaCl, 1 h, 37°C, twofold dilutions starting at MBC
Description: SYTOX® Green (Invitrogen, Carlsbad, CA, USA) is a high-affinity nucleic acid stain that only penetrates cells with compromised plasma membranes and emits fluorescence when bound to DNA ([Roth et al., 1997]). A SYTOX Green uptake assay ([Torcato et al., 2013]; [Sani et al., 2015]) was performed using P. aeruginosa to study the effect of viral protein-derived peptides on those bacterial membranes. Bacterial suspensions at 1 × 10^8 CFU/mL in MHB were centrifuged for 10 min at 4000 × g and the pellet resuspended in 10 mM HEPES buffer, pH 7.4, containing 150 mM NaCl, to a final concentration of 5 × 10^5 CFU/mL. The bacterial suspensions were incubated for 1 h at 37°C and 200 rpm, with twofold dilutions of each bactericidal viral protein-derived peptide in a range of concentrations starting at their corresponding MBC. Peptide-treated bacterial cells were incubated with 0.1 μM of SYTOX Green for 10 min, on ice and protected from light. The fluorescence emission intensity signal was measured by flow cytometry (excitation with 488 nm laser and detection at 530 nm with 30 nm bandpass) and a total of 50 000 events were recorded. […] The percentage of permeabilized cells was determined considering that untreated bacterial cells (negative control) are 0% permeabilized and bacterial cells treated with isopropyl alcohol (positive control) are 100% permeabilized. […]

P. aeruginosa cells = test: Atomic force microscopy (AFM) imaging; format: cell-based, Pseudomonas aeruginosa; details: 1 h, 37°C
Description: Atomic force microscopy (AFM) imaging was used to study the effect of the bactericidal viral protein-derived peptides on P. aeruginosa cells. Bacterial suspensions at 1 × 10^8 CFU/mL in MHB were centrifuged for 10 min at 4000 × g, and the pellet resuspended in HEPES buffer to a final concentration of 1 × 10^7 CFU/mL. The bacterial suspensions were treated with each peptide at concentrations corresponding to their MBC, as well as the concentrations above and below their MBC, and incubated for 1 h at 37°C and 200 rpm. As control, untreated bacterial suspension was also incubated using the same conditions. A 200 μL droplet of each test sample was applied on a poly-L-lysine-coated glass slide and allowed to deposit for 20 min at room temperature. Each sample was then rinsed 10 times with sterile Milli-Q water and allowed to dry for 30 min at room temperature. AFM images were acquired using a JPK NanoWizard II (Berlin, Germany) mounted on a Zeiss Axiovert 200 inverted microscope (Göttingen, Germany). Measurements were carried out in air and in intermittent contact mode using uncoated silicon ACL cantilevers from APPNano (Mountain View, CA, USA). ACL cantilevers had typical resonance frequencies of 190 kHz and a spring constant of 45 N/m. Bacteria were first visualized through the optical microscope before being selected for imaging. On average, 14 untreated bacteria and 10 individual bacterial cells were imaged for each peptide concentration, with a total area of 4 μm × 4 μm from three independent bacterial preparation slides. Height images were recorded and treated with JPK SPM data processing 5.1.8.

[10] = system: Staphylococcus aureus (S. aureus) ATCC 25923; details: previous screen, ref Freire et al., 2015a; cited from earlier work
[11] = system: Pseudomonas aeruginosa (P. aeruginosa) ATCC 27853; details: previous screen, ref Freire et al., 2015a; cited from earlier work

Substance KKRYKKKYKAYKPYKKKKKF-NH2 [vCPP 0275] has an MIC [1] of 12.5 µM, an MIC [2] of 100 µM and an MIC [3] of 25 to 50 µM. It also gave an MIC [4] of 50 µM.

RRLTLRQLLGLGSRRRRRSR-NH2 [vCPP 0769] gave an MIC [1] of 25 µM, an MIC [2] of 3.13 µM and an MIC [3] of 3.13 µM. For the same substance, the MIC [4] was 3.13 µM, the bactericidal or bacteriostatic (MRSA) was “only inhibited bacterial growth” and the MBC (MRSA) was over 100 µM. The bactericidal or bacteriostatic (S. aureus [5]) was “only inhibited bacterial growth”, the MBC (S. aureus [5]) was over 100 µM and the bactericidal or bacteriostatic (E. coli) was “bactericidal”. The MBC (E. coli) was 50 µM, the bactericidal or bacteriostatic (P. aeruginosa [6]) was “bactericidal” and the MBC (P. aeruginosa [6]) was 6.25 µM.

For WRRRYRRWRRRRRWRRRPRR-NH2 [vCPP 2319], the MIC [1] was 3.13 µM, the MIC [2] was 3.13 µM and the MIC [3] was 1.56 µM. For the same substance, the MIC [4] was 1.56 µM, the bactericidal or bacteriostatic (MRSA) was “bactericidal” and the MBC (MRSA) was 3.13 µM. The bactericidal or bacteriostatic (S. aureus [5]) was “bactericidal”, the MBC (S. aureus [5]) was 3.13 µM and the bactericidal or bacteriostatic (E. coli) was “bactericidal”. The MBC (E. coli) was 3.13 µM, the bactericidal or bacteriostatic (P. aeruginosa [6]) was “bactericidal” and the MBC (P. aeruginosa [6]) was 3.13 µM. For the same substance, the “reduction in bacterial viability” value (S. aureus [7]) was 90.9%, the “reduction of bacterial viability” value (P. aeruginosa [8]) was 97% and the “membrane permeabilization (SYTOX Green)” value (P. aeruginosa [9]) was “increase in membrane permeabilization with increasing peptide concentrations”. The “morphological changes of cell envelope (AFM)” value (from here on “morphological changes”) (P. aeruginosa cells; 1.56 μM, a concentration below MBC) was “only minor alterations on bacterial topography” and the “morphological changes” value (P. aeruginosa cells; treatment with MBC, or higher) was “marked collapse of the membrane structure”.

In the case of GRRGPRRANQNGTRRRRRRT-NH2 [vCPP 1779], the MIC [1] is reported as 25 µM, the MIC [2] is reported as 25 µM and the MIC [4] is reported as over 100 µM.

With INWKKWWQVFYTVV-NH2 [vAMP 059] the bactericidal or bacteriostatic (S. aureus [5]) was “bactericidal”, the MBC (S. aureus [5]) was 1.56 µM and the bactericidal or bacteriostatic (P. aeruginosa [6]) was “bactericidal”. The MBC (P. aeruginosa [6]) was 6.25 µM, the “reduction in bacterial viability” value (S. aureus [7]) was 99.9% and the “reduction of bacterial viability” value (P. aeruginosa [8]) was 99.7%. The “membrane permeabilization (SYTOX Green)” value (P. aeruginosa [9]) was “increase in membrane permeabilization with increasing peptide concentrations”, the “morphological changes” value (P. aeruginosa cells; all concentrations tested (MBC, above and below)) was “pronounced collapse in P. aeruginosa cell envelope” and the MIC [10] was 0.78 µM. For the same substance, the MIC [11] was 6.25 µM.

For RPRRRATTRRRITTGTRRRR-NH2 [vCPP 0667], the MIC [1] was 12.5 µM, the MIC [2] was 25 µM and the MIC [3] was 50 µM. It also gave an MIC [4] of 100 µM.

Work on SPRRRTPSPRRRRSQSPRRR-NH2 [vCPP 0417] yielded an MIC [1] of 25 µM, an MIC [2] of 100 µM and an MIC [3] of over 100 µM. For the same substance, the MIC [4] was over 100 µM.
